Results on 20 molecules are retold here after patent US20180110223A1, “PHENOXY- OR PYRIDIN-2-YLOXY-AMINOTRIAZINE COMPOUNDS AND THEIR USE AS HERBICIDES” (BASF SE, priority 2015, published 2018).

Holding throughout (format): in vivo
For assay [1], the system named is Echinocloa crus-galli. In words: greenhouse post-emergence treatment, ECHCG. Conditions: scale from 0 to 100. The text has this:
(§1) The culture containers used were plastic flowerpots containing loamy sand with approximately 3.0% of humus as the substrate. The seeds of the test plants were sown separately for each species.
(§2) For the post-emergence treatment, the test plants were first grown to a height of 3 to 15 cm, depending on the plant habit, and only then treated with the active ingredients which had been suspended or emulsified in water. For this purpose, the test plants were either sown directly and grown in the same containers, or they were first grown separately as seedlings and transplanted into the test containers a few days prior to treatment.
(§3) Depending on the species, the plants were kept at 10-25° C. or 20-35° C., respectively.
(§4) The test period extended over 2 to 4 weeks. During this time, the plants were tended, and their response to the individual treatments was evaluated.
(§5) Evaluation was carried out using a scale from 0 to 100. 100 means no emergence of the plants, or complete destruction of at least the aerial moieties, and 0 means no damage, or normal course of growth.
(§6) The plants used in the greenhouse experiments were of the following species: […]

Assay [2] relates to Setaria faberi. The assay can be described thus: greenhouse post-emergence treatment, SETFA. Conditions: scale from 0 to 100.
Source text: as §1, §2, §3, §4, §5, §6

In assay [3] the test system is Abutilon theophrasti. The assay can be described thus: greenhouse post-emergence treatment, ABUTH. Conditions: scale from 0 to 100.
Source text: as §1, §2, §3, §4, §5, §6

In assay [4] the test system is Amaranthus retroflexus. The assay can be described thus: greenhouse post-emergence treatment, AMARE. Conditions: scale from 0 to 100.
Source text: as §1, §2, §3, §4, §5, §6

For a further assay, the system named is Viola arvensis. The assay can be described thus: greenhouse post-emergence treatment, VIOAR. Conditions: 1000 g/ha, scale from 0 to 100.
Source text: as §1, §2, §3, §4, §5, §6

For the next assay, the system named is Alopecurus agrestis. In words: greenhouse post-emergence treatment, ALOMY. Conditions: 500 g/ha, scale from 0 to 100.
Source text: as §1, §2, §3, §4, §5, §6

The subject of assay [5] is Echinocloa crus-galli. In words: greenhouse pre-emergence treatment, ECHCG. Conditions: scale from 0 to 100.
Source text: as §1
(§7) For the pre-emergence treatment, the active ingredients, which had been suspended or emulsified in water, were applied directly after sowing by means of finely distributing nozzles. The containers were irrigated gently to promote germination and growth and subsequently covered with transparent plastic hoods until the plants had rooted. This cover caused uniform germination of the test plants, unless this had been impaired by the active ingredients.
as §3, §4, §5, §6

Assay [6] has as its system Amaranthus retroflexus. The assay can be described thus: greenhouse pre-emergence treatment, AMARE. Conditions: scale from 0 to 100.
Source text: as §1, §7, §3, §4, §5, §6

Assay [7] deals with Setaria faberi. In words: greenhouse pre-emergence treatment, SETFA. Conditions: scale from 0 to 100.
Source text: as §1, §7, §3, §4, §5, §6

Assay [8] concerns Abutilon theophrasti. In words: greenhouse pre-emergence treatment, ABUTH. Conditions: 1000 g/ha, scale from 0 to 100.
Source text: as §1, §7, §3, §4, §5, §6

A further assay concerns Polygonum convolvulus. The assay can be described thus: greenhouse post-emergence treatment, POLCO. Conditions: 125 g/ha, scale from 0 to 100.
Source text: as §1, §2, §3, §4, §5, §6

As for `CC(F)c1nc(N)nc(Oc2c(F)c(F)cc(F)c2F)n1` (stereo not drawn) [Example 1, 4-(1-fluoroethyl)-6-(2,3,5,6-tetrafluorophenoxy)-1,3,5-triazin-2-amine], the “herbicidal activity against ECHCG” value in the assay on Echinocloa crus-galli [1] (3000 g/ha) was “very good (a very good herbicidal activity is given at values of at least 85)”. Besides, in the assay on Setaria faberi [2] (3000 g/ha), the “herbicidal activity against SETFA” value is “very good (a very good herbicidal activity is given at values of at least 85)”. The “herbicidal activity against ABUTH” value in the assay on Abutilon theophrasti [3] (3000 g/ha) is recorded as “good (a good herbicidal activity is given at values of at least 70)”.

As for `CC(C)(F)c1nc(N)nc(Oc2c(F)c(F)c(F)c(F)c2F)n1` [Example 2], the “herbicidal activity against ECHCG” value in the assay with Echinocloa crus-galli [1] (3000 g/ha) is “very good (a very good herbicidal activity is given at values of at least 85)”. The “herbicidal activity against SETFA” value in the assay on Setaria faberi [2] (3000 g/ha) was “very good (a very good herbicidal activity is given at values of at least 85)”.

Take `CC(C)(F)c1nc(N)nc(Oc2c(F)ccc(F)c2F)n1` [Example 5]: the “herbicidal activity against AMARE” value in the assay on Amaranthus retroflexus [4] (1000 g/ha) is “very good (a very good herbicidal activity is given at values of at least 85)”.

On to `CC(F)c1nc(N)nc(Oc2cccc(F)c2F)n1` (stereo not drawn) [Example 7], for which the “herbicidal activity against ECHCG” value with Echinocloa crus-galli [1] (1000 g/ha) is “very good (a very good herbicidal activity is given at values of at least 85)”. In addition, in the assay with Setaria faberi [2] (1000 g/ha), the “herbicidal activity against SETFA” value is “very good (a very good herbicidal activity is given at values of at least 85)”.

As to `CC(F)c1nc(N)nc(Oc2c(F)ccc(F)c2F)n1` (stereo not drawn) [Example 8], the “herbicidal activity against AMARE” value in the assay with Amaranthus retroflexus [4] (1000 g/ha) was “very good (a very good herbicidal activity is given at values of at least 85)”. The “herbicidal activity against VIOR” value in the assay on Viola arvensis was “very good (a very good herbicidal activity is given at values of at least 85)”. Further, the “herbicidal activity against SETFA” value in the assay with Setaria faberi [2] (1000 g/ha) is recorded as “very good (a very good herbicidal activity is given at values of at least 85)”.

As to `CC(F)c1nc(N)nc(Oc2c(F)cc(F)c(F)c2F)n1` (stereo not drawn) [Example 9], the “herbicidal activity against AMARE” value with Amaranthus retroflexus [4] (1000 g/ha) is “very good (a very good herbicidal activity is given at values of at least 85)”. For the same molecule, in the assay with Viola arvensis, the “herbicidal activity against VIOR” value is “very good (a very good herbicidal activity is given at values of at least 85)”. Moreover, the “herbicidal activity against SETFA” value with Setaria faberi [2] (1000 g/ha) is “very good (a very good herbicidal activity is given at values of at least 85)”.

For `Nc1nc(Oc2c(F)cc(F)c(F)c2F)nc(C(F)(F)F)n1` [Example 11], in the assay on Setaria faberi [2] (1000 g/ha), the “herbicidal activity against SETFA” value is given as “very good (a very good herbicidal activity is given at values of at least 85)”.

On to `CCC(C)(F)c1nc(N)nc(Oc2c(F)cc(F)c(F)c2F)n1` (stereo not drawn) [Example 19], for which, in the assay on Amaranthus retroflexus [4] (500 g/ha), the “herbicidal activity against AMARE” value is “very good (a very good herbicidal activity is given at values of at least 85)”.

Regarding `CC(C)(C#N)c1nc(N)nc(Oc2c(F)c(F)c(F)c(F)c2F)n1` [Example 22], the “herbicidal activity against ALOMY” value in the assay on Alopecurus agrestis was “good (a good herbicidal activity is given at values of at least 70)”.

Regarding `CCC(F)c1nc(N)nc(Oc2c(F)cc(F)c(F)c2F)n1` (stereo not drawn) [Example 23], in the assay with Echinocloa crus-galli [5] (1000 g/ha), the “herbicidal activity against ECHCG” value was “very good (a very good herbicidal activity is given at values of at least 85)”. The “herbicidal activity against AMARE” value with Amaranthus retroflexus [6] (1000 g/ha) is on record as “very good (a very good herbicidal activity is given at values of at least 85)”. In the assay on Setaria faberi [7] (1000 g/ha), the “herbicidal activity against SETFA” value is listed as “very good (a very good herbicidal activity is given at values of at least 85)”.

Take `CCC(F)c1nc(N)nc(Oc2c(F)c(F)c(F)c(F)c2F)n1` (stereo not drawn) [Example 24]: in the assay on Echinocloa crus-galli [5] (1000 g/ha), the “herbicidal activity against ECHCG” value was “very good (a very good herbicidal activity is given at values of at least 85)”. Moreover, the “herbicidal activity against ABUTH” value in the assay with Abutilon theophrasti [8] is given as “very good (a very good herbicidal activity is given at values of at least 85)”. Also, the “herbicidal activity against SETFA” value in the assay on Setaria faberi [7] (1000 g/ha) is recorded as “very good (a very good herbicidal activity is given at values of at least 85)”.

`Nc1nc(Oc2c(F)cc(F)c(F)c2F)nc(-c2cccs2)n1` [Example 25]: the “herbicidal activity against ECHCG” value in the assay with Echinocloa crus-galli [1] (500 g/ha) is reported as “good (a good herbicidal activity is given at values of at least 70)”.

Turning to `Nc1nc(Oc2c(F)cc(F)c(F)c2F)nc(-c2ccc(Cl)s2)n1` [Example 27], the “herbicidal activity against AMARE” value with Amaranthus retroflexus [4] (500 g/ha) is given as “herbicidal activity”.

`Cc1ccc(-c2nc(N)nc(Oc3c(F)cc(F)c(F)c3F)n2)o1` [Example 32]: in the assay with Abutilon theophrasti [3] (1000 g/ha), the “herbicidal activity against ABUTH” value is recorded as “very herbicidal activity”.

As to `Nc1nc(Oc2c(F)cc(F)c(F)c2F)nc(C2CCCO2)n1` (stereo not drawn) [Example 33], in the assay with Polygonum convolvulus, the “herbicidal activity against POLCO” value is given as “very good (a very good herbicidal activity is given at values of at least 85)”.

As to `Nc1nc(Oc2c(F)cc(F)c(F)c2F)nc([C@H]2CCCO2)n1` [Example 34], in the assay with Amaranthus retroflexus [6] (500 g/ha), the “herbicidal activity against AMARE” value is listed as “good (a good herbicidal activity is given at values of at least 70)”. Moreover, in the assay with Setaria faberi [7] (500 g/ha), the “herbicidal activity against SETFA” value is “good (a good herbicidal activity is given at values of at least 70)”.

For the molecule `Nc1nc(Oc2c(F)cc(F)c(F)c2F)nc([C@@H]2CCCO2)n1` [Example 35], the “herbicidal activity against AMARE” value in the assay with Amaranthus retroflexus [4] (500 g/ha) is listed as “good (a good herbicidal activity is given at values of at least 70)”.

In the case of `Cc1ncoc1-c1nc(N)nc(Oc2c(F)cc(F)c(F)c2F)n1` [Example 38], in the assay on Echinocloa crus-galli [1] (1000 g/ha), the “herbicidal activity against ECHCG” value is on record as “good (a good herbicidal activity is given at values of at least 70)”.

`CC(F)c1nc(N)nc(Oc2c(F)c(F)c(F)c(I)c2F)n1` (stereo not drawn) [Example 39]: the “herbicidal activity against ECHCG” value in the assay with Echinocloa crus-galli [1] (500 g/ha) is “good (a good herbicidal activity is given at values of at least 70)”. Besides, the “herbicidal activity against SETFA” value with Setaria faberi [2] (500 g/ha) is recorded as “very good (a very good herbicidal activity is given at values of at least 85)”.

Regarding `CC(C)C(F)c1nc(N)nc(Oc2c(F)cc(F)c(F)c2F)n1` (stereo not drawn) [Example 42], the “herbicidal activity against ECHCG” value in the assay with Echinocloa crus-galli [5] (500 g/ha) is recorded as “good (a good herbicidal activity is given at values of at least 70)”. In addition, the “herbicidal activity against AMARE” value in the assay on Amaranthus retroflexus [6] (500 g/ha) is “good (a good herbicidal activity is given at values of at least 70)”. In addition, the “herbicidal activity against SETFA” value with Setaria faberi [7] (500 g/ha) is “very good (a very good herbicidal activity is given at values of at least 85)”.
